Reference: EP0066406A1, “Beta-lactam antibiotics” (BEECHAM GROUP PLC, priority 1981, dated 1982)
Read-outs that look alike come from different tables or passages of the source.

Legend:
Experiment in all cases: MIC determination (agar/broth)
Type in all cases: cell-based
S. marcescens US 32 = details: Serratia marcescens, US32, AGAR
P. mirabilis 889 = details: Proteus mirabilis, AGAR
S. aureus Oxford = system: S. aureus Oxford
E. coli ESS = details: Escherichia coli, AGAR
K. aerogenes A = details: Klebsiella aerogenes
E. coli NCTC 10418 = system: E. coli NCTC 10418
N. catarrhalis 1502 = details: AGAR
S. aureus Russell = system: S. aureus Russell
B. subtilis = details: Bacillus subtilis, AGAR
S. pyogenes CN 10 = details: Streptococcus pyogenes, CN10, AGAR
[1] = system: Ps. aeruginosa NCTC 10662; details: Pseudomonas aeruginosa
E. cloacae N1 = details: Enterobacter cloacae, AGAR
P. rettgeri = details: Providencia rettgeri, AGAR
Ps. aeruginosa Dalgleish = details: Pseudomonas aeruginosa; AGAR; Ps. aeruginosa Dalgleish 10^-2
E. coli JT 4 = details: Escherichia coli, JT4, AGAR
S. faecalis I = details: Enterococcus faecalis, AGAR
E. coli JT 425 = details: Escherichia coli, JT425, AGAR
P. mirabilis C 977 = details: Proteus mirabilis, C977, AGAR
P. morganii = details: Morganella morganii, AGAR
[2] = Staphylococcus aureus, AGAR, read-out: MIC

SMILES: CCN1CCN(C(=O)NC(C(=O)N[C@@H]2C(=O)N3[C@@H]2SC(C)(C)[C@@H]3C(=O)O)c2csc(N)n2)C(=O)C1=O (mixture of isomers) [Example 1, 6-[DL-a-(4-Ethyl-2,3-dioxopiperazin-l-carbonylamino)-2-aminothiazol-4-acetamido]penicillanic acid]
- MIC (S. marcescens US 32): 2.5 µg/mL
- MIC (P. mirabilis 889): > 100 µg/mL
- MIC (S. aureus Oxford; BROTH): 1.0 µg/mL
- MIC (S. aureus Oxford; [2]): 1 µg/mL
- MIC (E. coli ESS): < 0.02 µg/mL
- MIC (K. aerogenes A; AGAR): 10 µg/mL
- MIC (K. aerogenes A; BROTH): 25 µg/mL
- MIC (E. coli NCTC 10418; BROTH): 1.0 µg/mL
- MIC (E. coli NCTC 10418; Escherichia coli, NCTC10418, AGAR, read-out: MIC): 1 µg/mL
- MIC (N. catarrhalis 1502): < 0.02 µg/mL
- MIC (S. aureus Russell; BROTH): 100 µg/mL
- MIC (S. aureus Russell; [2]): 100 µg/mL
- MIC (B. subtilis): 2.5 µg/mL
- MIC (S. pyogenes CN 10): 0.1 µg/mL
- MIC ([1]; NCTC10662, AGAR, Ps. aeruginosa NCTC 10662): 5 µg/mL
- MIC ([1]; NCTC10662, AGAR, Ps. aeruginosa NCTC 10662 10^-2): 2.5 µg/mL
- MIC ([1]; NCTC10662, BROTH, Ps. aeruginosa NCTC 10662): 10 µg/mL
- MIC ([1]; NCTC10662, BROTH, Ps. aeruginosa NCTC 10662 10^-2): 25 µg/mL
- MIC (E. cloacae N1): 0.5 µg/mL
- MIC (P. rettgeri): 2.5 µg/mL
- MIC (Ps. aeruginosa Dalgleish): > 100 µg/mL
- MIC (E. coli JT 4): > 100 µg/mL
- MIC (S. faecalis I): 25 µg/mL
- MIC (E. coli JT 425): 25 µg/mL
- MIC (P. mirabilis C 977): 0.2 µg/mL
- MIC (P. morganii): 0.5 µg/mL
